Series [1] in a line: Compound stability in human liver microsomes. Format: in vitro ADME. Conditions: pH 7.4; for CLint scaled at 5 μM: liver microsomes, in vivo CLint extrapolated from human liver microsome incubation; for half-life at 5 μM: human liver microsomes 0.5 mg protein/mL, compound 5 μM, NADPH, 37° C., read-out: Human T1/2. On the procedure: (§1) Human or rat liver microsomes incubations were conducted in duplicate in polypropylene tubes. The typical incubation mixtures consisted of human or rat liver microsomes (0.5 mg protein/mL), compounds of interest (5 μM) and NADPH (1.0 mM) in a total volume of 200 μL potassium phosphate buffer (PBS, 100 mM, pH 7.4). Compounds were dissolved in DMSO and diluted with PBS such that the final concentration of DMSO was 0.05%. The enzymatic reactions were commenced with the addition of protein after a 3-min preincubation and incubated in a water bath open to the air at 37° C. Reactions were terminated at various time points (0, 5, 10, 15, 30, 60 min) by adding equal volume of ice-cold acetonitrile. The samples were stored at −80° C. until LC/MS/MS assays.
(§2) The concentrations of compounds in the incubation mixtures of human or rat liver microsomes were determined by a LC/MS/MS method. The ranges of the linearity in the concentration range were determined for each tested compounds.
(§3) A parallel incubation was performed using denatured microsomes as the negative control, and reactions were terminated at various time points (0, 15, 60 min) after incubation at 37° C.
(§4) Dextromethorphan (70 μM) was selected as the positive control, and reactions were terminated at various time points (0, 5, 10, 15, 30, 60 min) after incubation at 37° C. Both positive and negative control samples were included in each assay to ensure the integrity of the microsomal incubation system.
(§5) The concentrations of compounds in human or rat liver microsome incubations were plotted as a percentage of the relevant zero time point control for each reaction.

For the next series, the target named is PI3K (p120γ) (h) (Homo sapiens (Human), UniProt P48736). Put plainly: PI3K (p120γ) (h) non-radioactive HTRF kinase assay. The class given is biochemical. On the procedure:
(§6) PI3K (p120γ) (h) is incubated in assay buffer containing 10 μM phosphatidylinositol-4, 5-bisphosphate and MgATP (concentration as required). The reaction is initiated by the addition of the MgATP mix. After incubation for 30 minutes at room temperature, the reaction is stopped by the addition of stop solution containing EDTA and biotinylated phosphatidylinositol-3,4,5-trisphosphate. Finally, detection buffer is added, which contains europium-labelled anti-GST monoclonal antibody, GST-tagged GRP1 PH domain and streptavidin-allophycocyanin. The plate is then read in timeresolved fluorescence mode and the homogenous time-resolved fluorescence (HTRF) signal is determined according to the formula HTRF=10000×(Em665 nm/Em620 nm).
(§7) The kinase assays described herein were performed at Millipore UK Ltd, Dundee Technology Park, Dundee DD2 1SW, UK.

Series [2] can be described thus: Compound stability in rat liver microsomes. The class given is in vitro ADME. Conditions: pH 7.4; for CLint scaled at 5 μM: liver microsomes, in vivo CLint extrapolated from rat liver microsome incubation; for half-life at 5 μM: rat liver microsomes 0.5 mg protein/mL, compound 5 μM, NADPH, 37° C., read-out: Rat T1/2. On the procedure:
as §1, §2, §3, §4, §5

A further series deals with PI3K (p110α/p85α) (h) (Homo sapiens (Human), UniProt P42336). Put plainly: PI3K (p110α/p85α) (h) non-radioactive HTRF kinase assay. Format: biochemical. On the procedure: as §6, with “(p110α/p85α)” for “(p120γ)”, “phosphatidylinositol 4,5-bisphosphate” for “phosphatidylinositol-4, 5-bisphosphate”, “ATP solution.” for “MgATP mix.”, “streptavidin allophycocyanin.” for “streptavidin-allophycocyanin.”
as §7

In a further series the target is PI3K (p110δ/p85α) (h) (Homo sapiens (Human), UniProt O00329). Put plainly: PI3K (p110δ/p85α) (h) non-radioactive HTRF kinase assay. Format: biochemical. On the procedure: as §6, with “(p110δ/p85α)” for “(p120γ)”
as §7

The target in the next series is PI3K (p110β/p85α) (h) (Homo sapiens (Human), UniProt P42338). As to the kind of experiment: PI3K (p110β/p85α) (h) non-radioactive HTRF kinase assay. Format: biochemical. On the procedure: as §6, with “(p110β/p85α)” for “(p120γ)”, “phosphatidylinositol-4,5-bisphosphate” for “phosphatidylinositol-4, 5-bisphosphate”
as §7

Series [3] in a line: Pharmacokinetic profiles in rats. The class given is in vivo, rat. To be noted: for clearance / AUC(0-t) / half-life / Vd: iv dosing 1 mg/kg; for AUC(0-t) / half-life / Vd / bioavailability: rat, plasma; for Vd: read-out: Vss; for bioavailability: oral bioavailability. On the procedure:
The compounds disclosed herein are assessed in pharmacokinetic studies in mice, rats, dogs or monkeys. The compounds are administered as a water solution, 2% HPMC+1% TWEEN®80 in water solution, 5% DMSO+5% solutol in saline, 4% MC suspension or capsule. For the intravenous administration, the animals are generally given at 1 or 2 mg/kg dose. For the oral (p.o.) dosing, mice and rats are generally given 5 or 10 mg/kg dose, and dogs and monkeys are generally given 10 mg/kg dose. The blood samples (0.3 mL) are drawn at 0.25, 0.5, 1.0, 2.0, 3.0, 4.0, 6.0, 8.0, 12 and 24 h time points or 0.083, 0.25, 0.5, 1.0, 2.0, 4.0, 6.0, 8.0 and 24 h time points and centrifuged at 3,000 or 4000 rpm for 2 to 10 min. The plasma solutions are collected, stored at −20° C. or −70° C. until analyzed by LC/MS/MS as described above.

Where only a bound is given, the exact number is not on record here.

Chain of PI3K (p120γ) (h) (P48736 whole entry, the tested form may be a part): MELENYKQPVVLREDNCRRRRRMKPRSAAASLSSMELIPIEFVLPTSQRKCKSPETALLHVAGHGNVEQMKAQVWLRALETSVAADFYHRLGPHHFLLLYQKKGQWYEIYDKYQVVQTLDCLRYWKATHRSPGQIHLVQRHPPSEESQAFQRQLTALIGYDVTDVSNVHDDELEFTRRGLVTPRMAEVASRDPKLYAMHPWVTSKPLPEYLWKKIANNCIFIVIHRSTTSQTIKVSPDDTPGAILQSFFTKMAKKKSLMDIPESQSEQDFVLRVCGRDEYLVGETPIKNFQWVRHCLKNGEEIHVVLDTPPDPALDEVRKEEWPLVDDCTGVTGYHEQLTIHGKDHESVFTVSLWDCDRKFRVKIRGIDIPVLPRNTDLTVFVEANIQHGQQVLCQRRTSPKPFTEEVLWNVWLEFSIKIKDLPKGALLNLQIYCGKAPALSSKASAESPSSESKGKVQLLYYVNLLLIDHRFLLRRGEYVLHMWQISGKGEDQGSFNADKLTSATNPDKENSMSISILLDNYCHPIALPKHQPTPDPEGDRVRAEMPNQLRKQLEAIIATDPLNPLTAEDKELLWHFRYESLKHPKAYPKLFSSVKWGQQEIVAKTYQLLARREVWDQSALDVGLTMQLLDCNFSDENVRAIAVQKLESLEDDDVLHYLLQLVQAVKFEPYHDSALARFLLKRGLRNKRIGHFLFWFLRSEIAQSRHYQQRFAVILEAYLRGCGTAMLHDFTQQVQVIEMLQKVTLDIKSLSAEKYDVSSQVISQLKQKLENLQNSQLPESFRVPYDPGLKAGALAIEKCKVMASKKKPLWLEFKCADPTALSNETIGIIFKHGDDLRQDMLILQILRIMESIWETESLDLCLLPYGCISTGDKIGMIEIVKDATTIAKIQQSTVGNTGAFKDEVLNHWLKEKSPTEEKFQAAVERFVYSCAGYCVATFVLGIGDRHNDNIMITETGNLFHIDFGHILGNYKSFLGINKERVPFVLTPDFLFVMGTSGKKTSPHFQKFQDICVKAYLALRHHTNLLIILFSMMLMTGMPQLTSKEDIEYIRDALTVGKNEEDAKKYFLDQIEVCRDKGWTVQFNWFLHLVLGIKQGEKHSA
Chain of PI3K (p110β/p85α) (h) (P42338 whole entry): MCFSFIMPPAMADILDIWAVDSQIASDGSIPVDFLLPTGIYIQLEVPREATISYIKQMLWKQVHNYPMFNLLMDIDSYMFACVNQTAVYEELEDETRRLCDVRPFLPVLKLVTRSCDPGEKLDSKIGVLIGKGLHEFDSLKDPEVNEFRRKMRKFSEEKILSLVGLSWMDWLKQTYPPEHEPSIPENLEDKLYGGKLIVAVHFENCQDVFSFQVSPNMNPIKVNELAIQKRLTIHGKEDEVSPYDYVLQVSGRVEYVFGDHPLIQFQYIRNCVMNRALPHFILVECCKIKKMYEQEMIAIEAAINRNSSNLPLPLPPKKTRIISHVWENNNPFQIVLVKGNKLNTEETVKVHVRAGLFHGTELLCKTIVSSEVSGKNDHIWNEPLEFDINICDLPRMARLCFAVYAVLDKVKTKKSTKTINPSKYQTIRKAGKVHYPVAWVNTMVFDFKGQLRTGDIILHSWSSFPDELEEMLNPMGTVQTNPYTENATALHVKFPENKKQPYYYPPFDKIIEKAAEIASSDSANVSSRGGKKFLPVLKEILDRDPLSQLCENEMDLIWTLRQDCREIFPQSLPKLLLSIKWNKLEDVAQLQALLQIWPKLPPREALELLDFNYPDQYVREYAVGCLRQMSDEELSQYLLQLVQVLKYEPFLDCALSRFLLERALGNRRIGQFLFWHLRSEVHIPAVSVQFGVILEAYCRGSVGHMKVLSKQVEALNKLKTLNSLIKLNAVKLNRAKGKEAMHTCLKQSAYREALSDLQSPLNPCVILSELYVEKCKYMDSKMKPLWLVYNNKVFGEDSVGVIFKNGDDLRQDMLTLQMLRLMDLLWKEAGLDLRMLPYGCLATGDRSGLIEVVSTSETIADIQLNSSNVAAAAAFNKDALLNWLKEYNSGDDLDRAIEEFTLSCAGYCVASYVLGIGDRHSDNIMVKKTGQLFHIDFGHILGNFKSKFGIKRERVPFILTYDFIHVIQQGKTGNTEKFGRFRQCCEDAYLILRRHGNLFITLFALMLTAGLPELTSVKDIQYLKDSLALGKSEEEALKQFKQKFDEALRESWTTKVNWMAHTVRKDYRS
Chain of PI3K (p110β/p85α) (h) (P27986 whole entry partner): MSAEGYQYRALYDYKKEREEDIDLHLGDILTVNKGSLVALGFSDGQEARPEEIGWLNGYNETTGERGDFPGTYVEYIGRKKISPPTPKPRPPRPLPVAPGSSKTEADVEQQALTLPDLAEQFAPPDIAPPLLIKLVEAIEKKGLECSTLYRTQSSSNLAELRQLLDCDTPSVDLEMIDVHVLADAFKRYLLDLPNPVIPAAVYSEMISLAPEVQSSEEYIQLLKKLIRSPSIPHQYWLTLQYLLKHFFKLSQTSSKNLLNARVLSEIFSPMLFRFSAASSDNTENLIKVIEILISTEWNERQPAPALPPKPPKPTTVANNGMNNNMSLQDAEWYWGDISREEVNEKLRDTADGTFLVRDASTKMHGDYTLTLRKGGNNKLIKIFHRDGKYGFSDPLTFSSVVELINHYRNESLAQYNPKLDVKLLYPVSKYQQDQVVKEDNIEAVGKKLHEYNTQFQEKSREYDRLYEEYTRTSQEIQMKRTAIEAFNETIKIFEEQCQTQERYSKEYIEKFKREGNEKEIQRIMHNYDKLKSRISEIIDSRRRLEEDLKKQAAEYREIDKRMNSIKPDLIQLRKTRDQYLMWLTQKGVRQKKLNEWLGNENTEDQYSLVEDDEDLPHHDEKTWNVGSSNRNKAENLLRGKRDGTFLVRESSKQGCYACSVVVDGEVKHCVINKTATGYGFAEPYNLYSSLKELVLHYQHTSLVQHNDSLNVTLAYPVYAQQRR
Chain of PI3K (p110δ/p85α) (h) (O00329 whole entry): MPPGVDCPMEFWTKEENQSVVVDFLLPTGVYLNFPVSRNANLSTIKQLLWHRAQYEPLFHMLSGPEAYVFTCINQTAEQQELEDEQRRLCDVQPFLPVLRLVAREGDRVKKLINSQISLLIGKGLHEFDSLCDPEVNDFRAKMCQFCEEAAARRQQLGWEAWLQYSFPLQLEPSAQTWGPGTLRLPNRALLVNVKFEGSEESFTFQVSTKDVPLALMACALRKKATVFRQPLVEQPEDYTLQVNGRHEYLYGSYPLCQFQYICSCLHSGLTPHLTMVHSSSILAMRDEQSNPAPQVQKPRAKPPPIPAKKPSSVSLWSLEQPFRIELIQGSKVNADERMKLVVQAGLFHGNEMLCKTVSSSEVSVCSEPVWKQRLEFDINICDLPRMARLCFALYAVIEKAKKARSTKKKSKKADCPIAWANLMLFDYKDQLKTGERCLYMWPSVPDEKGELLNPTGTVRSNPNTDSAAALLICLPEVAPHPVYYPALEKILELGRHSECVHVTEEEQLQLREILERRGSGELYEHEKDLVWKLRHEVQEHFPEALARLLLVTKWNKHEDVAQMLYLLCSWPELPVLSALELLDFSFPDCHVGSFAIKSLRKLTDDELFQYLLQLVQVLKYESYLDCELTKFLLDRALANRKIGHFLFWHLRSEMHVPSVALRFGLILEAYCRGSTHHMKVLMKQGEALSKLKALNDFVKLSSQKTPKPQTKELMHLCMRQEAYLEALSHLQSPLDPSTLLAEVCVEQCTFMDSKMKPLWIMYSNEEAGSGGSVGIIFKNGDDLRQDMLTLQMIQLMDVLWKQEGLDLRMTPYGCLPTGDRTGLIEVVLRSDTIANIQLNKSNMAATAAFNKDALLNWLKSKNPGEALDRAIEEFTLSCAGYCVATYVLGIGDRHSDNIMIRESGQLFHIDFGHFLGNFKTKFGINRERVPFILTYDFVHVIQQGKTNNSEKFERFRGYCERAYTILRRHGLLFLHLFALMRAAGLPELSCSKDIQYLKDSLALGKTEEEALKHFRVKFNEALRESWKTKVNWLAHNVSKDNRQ
Chain of PI3K (p110δ/p85α) (h) (P27986 whole entry partner): as the sequence (P27986 whole entry partner) above
Chain of PI3K (p110α/p85α) (h) (P42336 whole entry): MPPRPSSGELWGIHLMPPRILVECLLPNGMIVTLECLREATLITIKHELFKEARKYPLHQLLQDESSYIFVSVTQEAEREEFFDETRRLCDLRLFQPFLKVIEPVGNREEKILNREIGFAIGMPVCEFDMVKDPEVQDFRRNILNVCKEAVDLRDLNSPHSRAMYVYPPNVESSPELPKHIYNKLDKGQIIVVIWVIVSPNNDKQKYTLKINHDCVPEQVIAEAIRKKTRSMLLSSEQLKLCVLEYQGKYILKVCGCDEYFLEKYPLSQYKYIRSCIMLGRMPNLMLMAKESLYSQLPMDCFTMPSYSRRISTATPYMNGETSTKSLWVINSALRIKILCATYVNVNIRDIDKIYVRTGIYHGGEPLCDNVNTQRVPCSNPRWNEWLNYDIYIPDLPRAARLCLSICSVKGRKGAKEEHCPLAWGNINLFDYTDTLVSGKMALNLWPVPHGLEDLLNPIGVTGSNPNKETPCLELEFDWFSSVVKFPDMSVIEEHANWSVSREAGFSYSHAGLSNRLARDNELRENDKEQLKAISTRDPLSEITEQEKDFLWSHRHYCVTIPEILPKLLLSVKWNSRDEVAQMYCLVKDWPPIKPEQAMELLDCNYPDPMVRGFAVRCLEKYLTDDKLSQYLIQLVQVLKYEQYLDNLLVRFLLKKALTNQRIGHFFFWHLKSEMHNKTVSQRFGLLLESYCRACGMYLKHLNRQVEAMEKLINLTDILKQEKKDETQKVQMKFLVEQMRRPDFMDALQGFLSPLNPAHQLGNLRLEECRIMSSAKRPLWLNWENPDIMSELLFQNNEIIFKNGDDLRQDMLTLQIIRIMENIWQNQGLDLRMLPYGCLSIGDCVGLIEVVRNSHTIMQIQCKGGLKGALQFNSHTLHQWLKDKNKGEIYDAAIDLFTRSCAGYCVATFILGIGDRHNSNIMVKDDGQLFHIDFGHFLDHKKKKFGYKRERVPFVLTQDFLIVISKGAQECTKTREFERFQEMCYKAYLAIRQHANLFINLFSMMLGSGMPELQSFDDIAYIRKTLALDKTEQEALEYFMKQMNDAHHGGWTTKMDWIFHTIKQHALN
Chain of PI3K (p110α/p85α) (h) (P27986 whole entry partner): as the sequence (P27986 whole entry partner) above

As for `Cc1noc(-c2c(N)ncnc2N[C@@H](C)c2nc3cccc(C#CC(C)O)c3c(=O)n2-c2ccccc2)n1` (stereo partly drawn) [Example 5, 2-((S)-1-((6-amino-5-(3-meth-1,2,4-oxadiazol-5-1)pyrimidin-4-1)amino)ethyl)-5-(3-hydroxybut-1-yn-1-yl)-3-phenylquinazolin-4(3H)-one], the figures for the CLint scaled at 5 μM in series [1] and in series [2] were 20.8 mL/min/kg and 28 mL/min/kg, respectively. The results for the half-life at 5 μM in series [1] and in series [2] were 83.7 min and 88.7 min, respectively. Moreover, the 50% inhibitory concentration (IC50) on PI3K (p120γ) (h) was found to be 512 nM; at PI3K (p110α/p85α) (h) it was 2400 nM; at PI3K (p110δ/p85α) (h), 17 nM; at PI3K (p110β/p85α) (h), 1870 nM.
Take `CC#Cc1cccc2nc([C@H](C)Nc3ncnc(N)c3-c3nc(C)no3)n(-c3ccccc3)c(=O)c12` [Example 9, (S)-2-(1-((6-amino-5-(3-methyl-1,2,4-oxadiazol-5-yl)pyrimidin-4-yl)amino)ethyl)-3-phenyl-5-(prop-1-yn-1-yl)quinazolin-4(3H)-one]: the figures for the intrinsic metabolic clearance (CLint scaled) at 5 μM in series [1] and in series [2] were 80.5 mL/min/kg and 85.2 mL/min/kg, respectively. The half-life at 5 μM turned out to be 21.6 min in series [1] and 29.2 min in series [2]. Moreover, the IC50 on PI3K (p120γ) (h) was 47 nM; at PI3K (p110α/p85α) (h) it was 460 nM; on PI3K (p110δ/p85α) (h), 2 nM; on PI3K (p110β/p85α) (h), 151 nM.
As to `CC#Cc1cccc2nc([C@H](C)Nc3ncnc(N)c3-c3nnc(C)o3)n(-c3ccccc3)c(=O)c12` [Example 10, (S)-2-(1-((6-amino-5-(5-methyl-1,3,4-oxadiazol-2-yl)pyrimidin-4-yl)amino)ethyl)-3-phenyl-5-(prop-1-yn-1-yl)quinazolin-4(3H)-one], the IC50 came out at 340 nM on PI3K (p120γ) (h), 2800 nM on PI3K (p110α/p85α) (h), 6 nM at PI3K (p110δ/p85α) (h) and 548 nM on PI3K (p110β/p85α) (h).
For `CC#Cc1cccc2nc([C@H](CC)Nc3ncnc(N)c3-c3nnc(C)o3)n(-c3ccccc3)c(=O)c12` [Example 15, (S)-2-(1-((6-amino-5-(5-methyl-1,3,4-oxadiazol-2-yl)pyrimidin-4-yl)amino)propyl)-3-phenyl-5-(prop-1-yn-1-yl)quinazolin-4(3H)-one] the same measures were 704 nM, above 3000 nM, 27 nM and above 3000 nM.
For `Cc1noc(-c2c(N)ncnc2N[C@@H](C)c2cc3cccc(C#CCO)c3c(=O)n2C2CC2)n1` [Example 33, (S)-3-(1-((6-amino-5-(3-methyl-1,2,4-oxadiazol-5-yl)-pyrimidin-4-yl)amino)ethyl)-2-cyclopropyl-8-(3-hydroxyprop-1-yn-1-yl)-isoquinolin-1 (2H)-one] the same measures were 118 nM, 1000 nM, 11 nM and 104 nM.
`Cc1nc(-c2c(N)ncnc2N[C@@H](C)c2nc3cccc(C#CCO)c3c(=O)n2-c2ccccc2)no1` [Example 38, (S)-2-(1-((6-amino-5-(5-methyl-1,2,4-oxadiazol-3-yl)pyrimidin-4-yl)amino)ethyl)-5-(3-hydroxyprop-1-yn-1-yl)-3-phenylquinazolin-4(3H)-one]: in series [1], the intrinsic metabolic clearance (CLint scaled) at 5 μM is 40.4 mL/min/kg and the half-life at 5 μM was 43 min. In series [2], the intrinsic metabolic clearance (CLint scaled) at 5 μM was 52.7 mL/min/kg and the half-life at 5 μM is 47.1 min. Further, in series [3], the clearance was 21.3 mL/min/kg, the AUC(0-t) came to 790 ng·h/mL, the half-life was 45.6 min and the Vd is 1.35 L/kg. Also, in series [3], the bioavailability is 40.4%.
In the case of `Cc1noc(-c2c(N)ncnc2N[C@@H](C)c2cc3cccc(C#CCO)c3c(=O)n2-c2ccccc2)n1` [Example 40, (S)-3-(1-((6-amino-5-(3-methyl-1,2,4-oxadiazol-5-yl)pyrimidin-4-yl)amino)ethyl)-8-(3-hydroxyprop-1-yn-1-yl)-2-phenylisoquinolin-1 (2H)-one], the IC50 came to 44 nM at PI3K (p120γ) (h), 704 nM at PI3K (p110α/p85α) (h), 5 nM at PI3K (p110δ/p85α) (h) and 154 nM at PI3K (p110β/p85α) (h).
For `Cc1noc(-c2c(N)ncnc2N[C@@H](C)c2nc3ccc(F)c(C#CCO)c3c(=O)n2-c2ccccc2)n1` [Example 42, (S)-2-(1-((6-amino-5-(3-methyl-1,2,4-oxadiazol-5-yl)pyrimidin-4-yl)amino)ethyl)-6-fluoro-5-(3-hydroxyprop-1-yn-1-yl)-3-phenylquinazolin-4(3H)-one] the same measures were 349 nM, above 3000 nM, 17 nM and 1600 nM.
For `C#Cc1cccc2nc([C@H](C)Nc3ncnc(N)c3-c3nnn(C)n3)n(C3CC3)c(=O)c12` [Example 52, (S)-2-(1-((6-amino-5-(2-methyl-2H-tetrazol-5-yl)pyrimidin-4-yl)amino)ethyl)-3-cyclopropyl-5-ethynylquinazolin-4(3H)-one], in series [1], the intrinsic metabolic clearance (CLint scaled) at 5 μM was 89.4 mL/min/kg and the half-life at 5 μM amounted to 19.4 min. In series [2], the CLint scaled at 5 μM is 79.8 mL/min/kg and the half-life at 5 μM was 31.1 min. In addition, in series [3], the clearance was found to be 23 mL/min/kg, the AUC(0-t) turned out to be 722 ng·h/mL, the half-life is 43.8 min and the Vd is 1.11 L/kg. In series [3], this compound returned a bioavailability of 70.8%.

(Values after patent US10751339B2, “Substituted aminopyrimidine compounds and methods of use” (SUNSHINE LAKE PHARMA CO., LTD., priority 2018, dated 2020).)
